Measured values from patent US10835611B2, “Neurotherapeutic nanoparticle compositions comprising leukemia inhibitory factor” (Yale University, priority 2012, dated 2020).
Blank lines part the entries; values can stand above or below the molecule they belong to.

Key:
[1] = test system: primary rat E14 VM tissue; assay: Anti-Thy-1 directed BDNF or 7,8-DHF nanoparticles versus free factor in primary rat E14 VM cultures; assay type: cell-based; details: 7 days in vitro
Description: To compare the effect of brain-derived neurotrophic factor (BDNF), or the BDNF agonist 7,8-dihydroxy flavone (7,8-DHF), when in a nano-particulate formulation targeted to Thy-1, versus free, primary rat E14 VM tissue was mixed with 100 μl of nanoparticle solution (0.05 mg; 0.1 mg; 1.0 mg nanoparticles/ml), or with free growth factor (10 nM; 100 nM; 1 μM; 10 μM) immediately prior to plating. After first confirming presence of Thy-1 antigen on the surface of TH+ neurons (data not shown), anti-Thy-1 decorated nanoparticles were prepared as either empty; or BDNF-nanoparticles; or 7,8 DHF-nanoparticles. Cultures were fixed after 7 days in vitro and analysed via immunocytochemistry for tyrosine hydroxylase positive cells. […] This is shown for 7,8 DHF-nanoparticles in FIG. 11A and FIG. 11B where the dose-response curve is similar to that reported by Jang et al (Jang et al, Proc. Natl. Acad. Sci. USA, 2010), with the exception of the high dose (10 μM) decline observed here.

[2] = test system: dopaminergic neurons in E14 VM cultures; assay: LIF treatment during dissociation of E14 VM tissue, TH+ neuron count in monolayer culture; assay type: cell-based, rat; details: tissue dissociated in 0.1 ng/ml LIF
Description: The VM of E14 rat foetuses was dissected and dissociated in medium with or without 0.1 ng/ml soluble LIF. The tissue was then plated in monolayer culture and grown for 2, 3 or 5 days prior to fixing. Dissociated cells were seeded in monolayer cultures and fixed after 2, 3 or 5 days in vitro (DIV).

[3] = test system: dopaminergic neurons in E14 VM cultures; assay: Growth medium supplemented with soluble LIF, TH+ neuron count in E14 VM cultures; assay type: cell-based, rat
Description: The VM of E14 rat foetuses was dissected and dissociated in standard conditions. Primary E14 VM tissue was dissociated and grown as monolayer cultures. After plating cells were chronically treated with soluble LIF in their growth medium ranging from 0.1 ng/ml to 100 ng/ml.

[4] = test system: E14 VM neural progenitor cells; assay: E14 VM neurosphere expansion with soluble LIF, subsequent differentiation in monolayer culture; assay type: cell-based, rat; details: 0.1 ng/ml LIF during neurosphere expansion; monolayer without LIF
Description: To investigate the effect of LIF treatment on the differentiation of E14 VM, tissue was grown as neurospheres in expansion medium with or without 0.1 ng/ml soluble LIF. Primary ventral midbrain tissue was expanded in medium containing the mitogens EGF and FGF-2 for 5 days. These neurospheres were then dissociated into single cells and plated in monolayer culture in the absence of LIF. After 5 days of growth these cultures were analysed via immunocytochemistry for neural and astroglial differentiation (FIGS. 6A and 6B, showing morphology + or − LIF). The presence of LIF during the expansion of E14 VM had no effect on subsequent differentiation (FIG. 7 showing results after 5 and 10 days).

[5] = test system: dopaminergic neurons in E14 VM cultures; assay: Dopaminergic apoptosis (TH, cleaved caspase-3, condensed nucleus) in E14 VM monolayer cultures; assay type: cell-based, rat
Description: A subset of tyrosine hydroxylase neurons co-localised with cleaved caspase-3 and a condensed nucleus, both markers of apoptotic cells. […] Immunocytochemical analysis was performed to determine whether LIF treatment (soluble or targeted nanoparticles) decreased the number of apoptotic dopaminergic neurons in these cultures.
E14 VM monolayer cultures, treated with soluble LIF or LIF/empty nanoparticles were fixed after 2, 3 or 5 days.

Molecule: O=c1cc(-c2ccccc2)oc2c(O)c(O)ccc12 [7,8-DHF, 7,8-dihydroxy flavone, reference compound]
longest neurite length [1]: neither soluble 7,8-DHF nor 7,8-DHF-nano altered
number of primary neurites [1]: neither soluble 7,8-DHF nor 7,8-DHF-nano altered
serotonergic cells versus dopaminergic cells [1]: constant ratio

number of tyrosine hydroxylase positive neurons ([3]; growth medium with 0.1 ng/ml LIF, 3 and 5 days in vitro): significantly increase
Molecule: LIF: leukaemia inhibitory factor, member of the IL-6 family of cytokines, used soluble in medium
number of TH+ neurons ([2]; 3 and 5 days in vitro): effect was lost
number of TH+ neurons ([2]; 2 days in vitro): significantly more
number of TH positive neurons ([3]; all LIF dosages above 0.1 ng/ml (up to 100 ng/ml)): no significant effect
subsequent neural and astroglial differentiation [4]: no effect
level of dopaminergic apoptosis ([5]; 2 days in vitro): significant reduction
dopaminergic apoptosis ([5]; 3 days in vitro): did not reach statistical significance

B1: BDNF: brain-derived neurotrophic factor (protein, UniProt P23560 19-247, looked up)
Neurotrophic factor BDNF …: APMKEANIRGQGGLAYPGVRTHGTLESVNGPKAGSRGLTSLADTFEHVIEELLDEDQKVRPNEENNKDADLYTSRVMLSSQVPLEPPLLFLLEEYKNYLDAANMSMRVRRHSDPARRGELSVCDSISEWVTAADKKTAVDMSGGTVTVLEKVPVSKGQLKQYFYETKCNPMGYTKEGCRGIDKRHWNSQCRTTQSYVRALTMDSKKRIGWRFIRIDTSCVCTLTIKRGR
longest neurite length [1]: significant increase
number of primary neurites [1]: significant increase
serotonergic cells versus dopaminergic cells [1]: constant ratio
